For the data set, the system named is red blood cells. The class given is cell-based, mouse. Here is the method: Based on the antimicrobial activity screening, a hemolysis assay was conducted to assess the toxicity of Cy-f1, Cy-f2, and Cy-f4 (Figure 5). For Cy-f1, the hemolysis percentage remained consistently low across all tested concentrations. At 8 μM, Cy-f1 induced approximately 0.12% hemolysis. […] For Cy-f2, the hemolysis percentage also remained consistently low across all tested concentrations. At 8 μM, Cy-f2 induced approximately 0.3% hemolysis, and Cy-f2 stayed stable at 0.3% at 16 μM and 32 μM. […] At 8 μM, it induced approximately 0.7% hemolysis, […]. However, hemolysis increased slightly with higher concentrations, reaching approximately […] and 1.1% at 16 μM and 32 μM, respectively. […] In this experiment Triton X-100 was used as a positive control with a hemolysis rate of 100%.
For the hemolytic assay, 2 mL of fresh blood was collected from a healthy mouse into an EDTA-coated tube. All procedures regarding the care and use of laboratory animals adhered to the guidelines established by the Guangxi University Ethics Committee (Approval No.: GXU-2024-063). According to the method of Tan with necessary adjustments. The blood was centrifuged and upper supernatant plasma was removed. […] After centrifugation, 200 µL of supernatant were transferred into a 96-well plate and the absorbance was recorded at 576 nm using a microplate reader. […]

Turning to Triton X-100, the “Hemolysis rate (positive control)” value is 100%.

(Values after paper PMC12156185, “Synthesis of Cyclic Hexapeptides via the Hydrazide Method and Evaluation of Their Antibacterial Activities” (Molecules, 2025).)
